Results on 1 molecule are retold here after patent US8993593B2, “N-(4-(6-fluoro-3,4-dihydroisoquinolin-2(1H)-yl)-2,6-dimethylphenyl)-3,3-dimethylbutanamide as potassium channel modulators” (Valeant Pharmaceuticals International, priority 2006, dated 2015).

Structures are written as SMILES.

In one data set the target is KCNQ1 (Homo sapiens, UniProt P51787). Put plainly: Two-electrode voltage-clamp in Xenopus laevis oocytes, KCNQ1. Type of data set: cell-based. Further details: KCNQ1 Block (%): dose or concentration left out as unconfirmed. The method, then:
(§1) Female Xenopus laevis extracted ovaries were purchased from eNASCO (LM00935MX, eNASCO Fort Atkinson, Wis.). […] Approximately 50 nl cRNA (about 50 ng) was injected for KCNQ1, KCNQ4, and KCNQ5 using a Nanoject microinjector (Drummond, Broomall, Pa., USA). For co-expression of KCNQ2 and KCNQ3 and of KCNQ1 and KCNE1, cRNA's were mixed in equal molar ratios before injection of approximately 50 nl. […] Oocytes were kept in Culture Barth solution at 19° C. which was changed daily and currents were recorded after 3 to 5 days.
(§2) KCNQ channel currents expressed in Xenopus laevis oocytes were recorded using a two-electrode voltage-clamp. […] The oocytes were placed in custom built perfusion chambers connected to a continuous flow system and impaled with a current electrode and a voltage-clamp electrode pulled from borosilicate glass on a Flaming/Brown Micropipette Puller (Sutter Instruments Co, Novato, Calif., USA).
(§3) All compounds were dissolved in DMSO to obtain concentrated stock solutions. On the day of electrophysiological experiments the stock solutions were thawed and diluted in recording solution to their final concentrations. The final DMSO concentration never exceeded 0.1%. Compound delivery was performed using a custom built multi-barrel apparatus connected to the flow system.
(§4) Data were acquired by means of an Axograph X software (Axograph Scientific, Sydney, AU) and analyzed using Graph Pad Prism (GraphPad Software Inc., CA, USA). […]
(§5) After steady channel current was recorded in the presence of Retigabine at its EC75, recorded oocyte was washed with the recording solution until its steady current returned to its normal level without the presence of any drugs. Then the channel steady current was recorded in the presence of the test compound at its EC75. The percent efficacy was then expressed as: % efficacy=(C2/C 1)×100 where C2 is the recorded steady current in the presence of follow-on compound at its EC75 and C1 is the recorded steady current in the presence of Retigabine at its EC75.

The target in the next data set is KCNQ4 (Homo sapiens, UniProt P56696). The data set can be described thus: Two-electrode voltage-clamp in Xenopus laevis oocytes, KCNQ4. Type of data set: cell-based. As for the experimental part: as §1, §2, §3, §4, §5
For orientation: Two-electrode voltage clamp is typically applied to oocytes expressing channels or transporters.

The target in another data set is KCNQ5 (Homo sapiens, UniProt Q9NR82). The data set can be described thus: Two-electrode voltage-clamp in Xenopus laevis oocytes, KCNQ5. Type of data set: cell-based. The method, then:
as §1, §2, §3, §4, §5

For a further data set, the target named is T1, KCNQ2 channels (Homo sapiens, UniProt O43526).
T1 construct: expressed in transfected cells; host or cells: CHO cells
The data set can be described thus: Potassium ion efflux, KCNQ2 channels expressed in CHO cells. Type of data set: cell-based. The method, then:
Using natively expressed M-currents present in differentiated pheochromocytoma (PC-12) cells and CHO cells transfected with KCNQ2 and hERG potassium channels, the in vitro activity of compound A on potassium ion efflux was determined.
The EC50 values for retigabine and compound A on the activation of KCNQ2 channels expressed in CHO cells were determined on three separate occasions in triplicate.

In data set [1] the target is T2, hERG (Homo sapiens, UniProt Q12809). The data set can be described thus: in vitro.
The target of data set [2] is T2, hERG. Put plainly: cell-based.

T2 sequence (Q12809 whole entry): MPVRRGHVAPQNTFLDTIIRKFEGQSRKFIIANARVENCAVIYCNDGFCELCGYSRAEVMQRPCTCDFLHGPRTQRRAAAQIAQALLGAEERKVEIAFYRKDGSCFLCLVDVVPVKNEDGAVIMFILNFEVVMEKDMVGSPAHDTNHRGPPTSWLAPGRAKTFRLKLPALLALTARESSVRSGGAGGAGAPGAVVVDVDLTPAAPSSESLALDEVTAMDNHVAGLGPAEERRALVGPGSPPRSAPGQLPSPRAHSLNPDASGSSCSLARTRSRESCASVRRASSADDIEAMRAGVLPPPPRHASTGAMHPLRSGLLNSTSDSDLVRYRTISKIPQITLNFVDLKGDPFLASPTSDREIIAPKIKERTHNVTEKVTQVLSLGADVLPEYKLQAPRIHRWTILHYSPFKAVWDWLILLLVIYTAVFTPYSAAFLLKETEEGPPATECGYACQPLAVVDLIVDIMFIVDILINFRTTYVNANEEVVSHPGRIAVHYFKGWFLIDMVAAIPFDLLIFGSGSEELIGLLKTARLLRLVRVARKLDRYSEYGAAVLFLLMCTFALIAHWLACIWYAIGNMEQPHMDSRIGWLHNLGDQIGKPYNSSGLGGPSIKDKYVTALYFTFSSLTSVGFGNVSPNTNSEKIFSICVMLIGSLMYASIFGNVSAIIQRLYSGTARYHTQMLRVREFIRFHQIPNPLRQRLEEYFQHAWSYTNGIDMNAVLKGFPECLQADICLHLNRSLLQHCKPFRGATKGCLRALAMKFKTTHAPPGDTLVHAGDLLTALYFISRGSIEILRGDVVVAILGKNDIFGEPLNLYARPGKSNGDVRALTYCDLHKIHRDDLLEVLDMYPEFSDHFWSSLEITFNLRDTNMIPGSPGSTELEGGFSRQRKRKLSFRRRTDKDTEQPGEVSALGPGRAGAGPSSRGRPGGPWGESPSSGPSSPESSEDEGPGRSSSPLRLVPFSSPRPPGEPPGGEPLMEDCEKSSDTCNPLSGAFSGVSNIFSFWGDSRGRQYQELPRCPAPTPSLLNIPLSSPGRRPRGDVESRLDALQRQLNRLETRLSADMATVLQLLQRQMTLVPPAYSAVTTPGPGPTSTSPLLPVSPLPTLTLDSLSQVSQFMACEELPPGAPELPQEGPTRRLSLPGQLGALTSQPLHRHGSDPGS
T1 sequence (O43526 whole entry): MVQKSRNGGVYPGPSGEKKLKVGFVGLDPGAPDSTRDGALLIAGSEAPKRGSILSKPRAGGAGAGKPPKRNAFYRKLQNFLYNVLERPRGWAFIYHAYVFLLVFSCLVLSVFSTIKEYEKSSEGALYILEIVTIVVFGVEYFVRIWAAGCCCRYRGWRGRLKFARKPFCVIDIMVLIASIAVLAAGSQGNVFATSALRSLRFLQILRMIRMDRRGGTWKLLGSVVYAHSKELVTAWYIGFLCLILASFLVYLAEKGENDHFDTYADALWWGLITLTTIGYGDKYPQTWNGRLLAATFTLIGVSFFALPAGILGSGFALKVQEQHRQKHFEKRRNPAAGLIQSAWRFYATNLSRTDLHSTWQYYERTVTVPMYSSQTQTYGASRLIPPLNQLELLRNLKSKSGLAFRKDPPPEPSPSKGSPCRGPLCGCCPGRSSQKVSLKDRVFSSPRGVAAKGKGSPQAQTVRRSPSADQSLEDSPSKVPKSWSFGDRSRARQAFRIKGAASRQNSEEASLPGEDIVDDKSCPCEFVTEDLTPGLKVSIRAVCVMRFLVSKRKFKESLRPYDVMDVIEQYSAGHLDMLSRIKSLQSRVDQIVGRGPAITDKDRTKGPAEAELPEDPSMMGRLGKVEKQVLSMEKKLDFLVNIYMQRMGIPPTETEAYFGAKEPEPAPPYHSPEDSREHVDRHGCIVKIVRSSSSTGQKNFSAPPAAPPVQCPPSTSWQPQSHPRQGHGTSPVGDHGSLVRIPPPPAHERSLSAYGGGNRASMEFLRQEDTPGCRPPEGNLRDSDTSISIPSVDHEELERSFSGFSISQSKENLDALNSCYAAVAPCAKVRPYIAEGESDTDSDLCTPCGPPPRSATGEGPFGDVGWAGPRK

What is called EC50 is the midpoint of the concentration-response curve. For orientation: inhibition means the relative decrease from the control value, in per cent. `Cc1cc(N2CCc3cc(F)ccc3C2)cc(C)c1NC(=O)CC(C)(C)C` [compound A, N-[4-(6-fluoro-3,4-dihydro-1H-isoquinolin-2-yl)-2,6-dimethylphenyl]-3,3-dimethyl butanamide]: the “KCNQ1 Block (%)” value on KCNQ1 (oocyte expression) was 0%. For the same molecule, the “effect on KCNQ1 (cardiac potential)” value on KCNQ1 (selectivity versus KCNQ2-5, in words) is on record as “not affecting”. The EC50 at KCNQ4 was 630 nM; at KCNQ5, 350 nM; at KCNQ2 channels, 11 nM; at hERG [2], above 30000 nM. Moreover, the “KCNQ4 Efficacy Relative to Retigabine (%)” value on KCNQ4 (oocyte expression, at EC75) was 100%. Also, the “KCNQ5 Efficacy Relative to Retigabine (%)” value on KCNQ5 (oocyte expression, at EC75) turned out to be 100%. Besides, the inhibition at 30 µM against hERG [1] is -0.1%.
